# Entries after “also recorded” stand apart in the source; their conditions may differ.
# Tests used:
# [1] = system: tumor cell lines; settings: variety of tumor cell lines; cited from earlier work
# [2] = system: Human ovarian carcinoma cells SKOV3; experiment: Cytotoxicity by counting cells after 72 h, Taxol-sensitive cells; format: cell-based; settings: SK-OV-3, 72 h
# Experimental: (§1) Human non-small cell lung carcinoma cells, A549, were maintained in RPMI 1640 containing 10% fetal bovine serum and 1% penicillin-streptomycin (Gibco Laboratories, Grand Island N.Y.) at 37° C. in 7% CO2. The Taxol-resistant cell line A549-T12 was selected for resistance to Taxol and maintained in a final concentration of 12 nM drug (21). Human ovarian carcinoma cells SKOV3 and the MDR variant SKVBL (obtained from Dr. V. Ling) were maintained in α-mem plus ribonucleotides, deoxynucleotides, 15% fetal bovine serum and 1% penicillin-streptomycin (Gibco Laboratories) at 37° C. in 5% CO2. SKVBL cells were maintained in […] vinblastine (Sigma Chemical Co.).
# (§2) Taxol-resistant and sensitive cell lines were seeded into 12-well plates at a density of 5×10^4 cells per well and allowed a period of 12 h for attachment prior to treatment. Cells were exposed to 10-fold serial dilutions of each compound (10^-10 to 10^-6 M) for 72 h. Cells were then trypsinized and counted (Coulter counter model ZF0031, Coulter Corp., Miami, Fla.). The IC50 was determined by plotting cell number against log of the drug concentration and this was used to determine the concentration of compound resulting in 50% growth inhibition compared to untreated cells. Each cell line was assayed in a minimum of 3 independent experiments with each compound and the results expressed as the mean IC50.
# ^a Cytotoxicity determined by counting cells after 72 h drug exposure.
# [3] = system: P-glycoprotein; experiment: P-glycoprotein substrate behaviour inferred from resistance of SKVBL cells; format: cell-based, human
# Experimental: as §1, §2
# The cytotoxic efficacy of eleutherobin and its derivatives (FIG. 6) was evaluated in two drug sensitive human cancer cell lines and their Taxol-resistant counterparts. The results are summarized in Table I in order of decreasing potency. […] The Taxol-resistant cell line SKVBL overexpresses high levels of P-glycoprotein (22). […] The only difference between the two agents is the enantiomeric relationship in the carbohydrate (2'-acetylarabinose) sector (FIG. 6). […] This cell line expressed high levels of MDR1 resulting in Taxol-resistance equal or greater than 1666 -fold compared to the Taxol-sensitive SKOV3 cell line.
# [4] = system: microtubules; settings: cited from earlier work
# [5] = system: tubulin / microtubule protein; experiment: Tubulin polymerization by turbidity at 350 nm in the absence of GTP; format: biochemical, calf; settings: 10 μM, 37 °C, relative to 10 μM Taxol (100%)
# Experimental: Eleutherobin and its derivatives were synthesized as described (18,19). Taxol was obtained from the Drug Development Branch, National Cancer Institute (Bethesda, Md.). All compounds were dissolved in dimethyl sulfoxide (Sigma Chemical Co., St. Louis, Mo.) at stock concentrations of 5 mM and stored at -20° C. All control samples contained an equal volume of DMSO. GTP was obtained from Sigma Chemical Co. And dissolved in sterile distilled water at a concentration of 10 mM and stored at -20° C. Microtubule protein was purified from calf brains by two cycles of temperature-dependent assembly and disassembly (20) and stored in liquid nitrogen prior to use. The anti-mouse β-tubulin monoclonal antibody T-4026 was obtained from Sigma Chemical Co.
# The ability of each compound to polymerize tubulin was evaluated by recording the change in turbidity of microtubule protein at 350 nm for 80 min in a spectrophotometer (UVIKON, Research Instruments Int., SD, Calif.). One mg of purified microtubule protein was diluted in assembly buffer containing 0.1 M MES, 1 mM EGTA, 0.5 mM MgCl2 and 3 M glycerol, pH 6.6. All compounds were evaluated at a concentration of 10 μM at 37° C. […] Microtubule stability was assessed by the addition of 10 mM Ca^++. changes from t=0-10 min were used to calculate initial slopes from the linear portion of each curve. These values were used to calculate the activity of each compound (relative to the activity of Taxol which was assigned a value of 100%).
# The polymerization activity of these compounds was also assessed by determining the slope of the linear portion of each curve at A350 nm (t=0-10 min), and expressing this relative to Taxol (which was assigned a value of 100% (FIG. 8). The order of activity of eleutherobin and derivatives using this method, corroborates the results obtained from cytotoxicity studies.
# [6] = system: cellular microtubules, NIH 3T3 cells; experiment: Microtubule bundle formation by immunofluorescence; format: cell-based; settings: 2 μM, 5.5 h
# Experimental: FIG. 9 immunofluorescence images NIH3T3 cells labeled with β-tubulin antibody following exposure to different drugs. A)DMSO; B)2 μM Taxol; C)2 μM eleutherobin; D)2 μM neo-eleutherobin; E)2 μM SKBII.294; F)2 μM SKBIII.13.
# Illustrates the effects of eleutherobin and its derivatives on the morphology of cellular microtubules following exposure of cells to 2 μM of each compound for 5.5 h at 37° C. […] The number of micotic asters correlated with the extent of microtubule bundling in interphase cells.
# NIH 3T3 cells were grown to subconfluency on glass converslips in 35 mm plastic petri dishes. Cells were exposed to 2 μM of Taxol and each of the experimental compounds for 5.5 h at 37° C., rinsed twice in PBS and extracted with 0.5% Triton-X-100 in microtubule stabilizing buffer (PEM) (100 mM PIPES, 2 mM EGTA and 2 mM MgCl2, pH 6.8) for 4 min. Following a wash in PEM, the cells were fixed for 40 min at room temperature in 3% formaldehyde in PEM followed by incubation in 0.1 M glycine in PBS for 10 min and washing (four times) in PEM containing 5 μM EGTA. Following blocking in 20% normal goat serum (NGS) for 30 min at room temperature, cells were incubated for 1 h at 37° C. with a 1:100 dilution of β-tubulin mAb diluted in 10% NGS, washed twice in 1% BSA, once in PBS and three times in 1% BSA. Cells were then incubated in a 1:200 dilution of the secondary fluorophore antibody, IndocarbocyanineCY3 (Jackson Immunoresearch Laboratories Inc., Pa.) in 20% NGS for 20 min at room temperature. Finally cells were washed three times in 1% BSA and the dried slides mounted in 30% glycerol in PBS containing […]-phenylene diamine (1 mg/ml). Fixed slides were examined using a Zeiss Axioskop microscope.
smiles,measurement,setting,value
CO[C@]12C=C[C@](C)(O1)[C@@H](OC(=O)/C=C/c1cn(C)cn1)C[C@H]1C(C)=CC[C@H](C(C)C)[C@H]1/C=C\2CO[C@@H]1OC[C@@H](O)[C@@H](O)[C@@H]1OC(C)=O [Eleutherobin],potency in tumor cell lines (in words),[1],excellent potency in a variety of tumor cell lines
same,IC50,[2],9.5 nM
same,P-glycoprotein substrate (in words),[3],excellent substrates for P-glycoprotein
same,effect on microtubules (in words),[4],potentiates the assembly of stable microtubules resistant to depolymerization; also recorded: promotes the polymerization of stable microtubules
same,polymerization activity relative to Taxol,[5],94%
same,microtubule bundle formation (in words),[6]; 37 °C,extensive microtubule bundling
same,multiple asters in mitotic cells,[6]; data not shown,also seen in eleutherobin and neo-eleutherobin-treated cells

# Reference: patent publication US6172205A, “Synthetic process toward total synthesis of eleutherobin and its analogues and uses thereof” (The Trustees of Columbia in the City of New York, priority 1998, dated 2001)
